The results in this text go back to US12570659B2, “Bicyclic heteroaryl compounds useful as IRAK4 inhibitors” (BRISTOL-MYERS SQUIBB COMPANY, priority 2019, dated 2026).

For orientation: IC50 means the concentration that inhibits the measured activity by half.

One test addresses IRAK4 (Homo sapiens (Human), UniProt Q9NWZ3). In words: IRAK4 Inhibition Assay. Type of test: biochemical. The settings on record: ATP 500 μM; IRAK4 0.6 nM; 60 min room temperature. The gist of the method:
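Phosphorylated and unphosphorylated fluorescent substrate were resolved by microfluidic electrophoresis after termination with 35 mM EDTA. The room-temperature kinase reaction lasted 60 min after IRAK4, substrates and test compound were combined; vehicle-only defined 0% and no-enzyme 100% inhibition.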

For a further test, the target named is JAK3 kinase (Homo sapiens (Human), UniProt P52333). Nature of the test: JAK3 Homogeneous Time Resolved Fluorescence (HTRF) Assay. Type of test: binding. The settings on record: for IC50: competition binding with fluorescein-labeled ATP competitive probe; for Ratio of JAK3 IC50 to IRAK4 IC50: selectivity for IRAK4 over JAK3. The gist of the method:
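IC50 reflects displacement of a fluorescein-labeled ATP-site probe (at its Kd) from 1 nM tagged JAK3, detected via 0.2 nM Tb anti-His or anti-GST antibody. One-hour incubation; 495 and 520 nm emission ratios, background-subtracted, normalized to maximum signal; 11-point percent inhibition, 4-parameter logistic.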

For test [1], the system named is TLR2 agonist-stimulated IL-6 in human whole blood. In words: IRAK4 Whole Blood Assay. The settings on record: lipoteichoic acid 10 μg/mL, 5 hours, IL-6 levels. In kind it is cell-based. On the procedure: Human whole blood containing the anti-coagulant ACD-A was plated in 384-well plate (25 μL/well) and incubated with compounds for 60 minutes at 37° C. in a 5% CO2 incubator. The blood was stimulated with a TLR2 agonist, 10 μg/mL final concentration of lipoteichoic acid (Invivogen, San Diego, CA) in 25 μL RPMI (Gibco) for 5 hours in a 5% CO2 incubator. At the end of the incubation, plates were centrifuged at 2300 rpm for 5 minutes. Supernatants were harvested and analyzed for IL-6 levels by Flow Cytometry beads assay (BD Biosciences, San Jose, CA).

Chain of JAK3 kinase (P52333 whole entry): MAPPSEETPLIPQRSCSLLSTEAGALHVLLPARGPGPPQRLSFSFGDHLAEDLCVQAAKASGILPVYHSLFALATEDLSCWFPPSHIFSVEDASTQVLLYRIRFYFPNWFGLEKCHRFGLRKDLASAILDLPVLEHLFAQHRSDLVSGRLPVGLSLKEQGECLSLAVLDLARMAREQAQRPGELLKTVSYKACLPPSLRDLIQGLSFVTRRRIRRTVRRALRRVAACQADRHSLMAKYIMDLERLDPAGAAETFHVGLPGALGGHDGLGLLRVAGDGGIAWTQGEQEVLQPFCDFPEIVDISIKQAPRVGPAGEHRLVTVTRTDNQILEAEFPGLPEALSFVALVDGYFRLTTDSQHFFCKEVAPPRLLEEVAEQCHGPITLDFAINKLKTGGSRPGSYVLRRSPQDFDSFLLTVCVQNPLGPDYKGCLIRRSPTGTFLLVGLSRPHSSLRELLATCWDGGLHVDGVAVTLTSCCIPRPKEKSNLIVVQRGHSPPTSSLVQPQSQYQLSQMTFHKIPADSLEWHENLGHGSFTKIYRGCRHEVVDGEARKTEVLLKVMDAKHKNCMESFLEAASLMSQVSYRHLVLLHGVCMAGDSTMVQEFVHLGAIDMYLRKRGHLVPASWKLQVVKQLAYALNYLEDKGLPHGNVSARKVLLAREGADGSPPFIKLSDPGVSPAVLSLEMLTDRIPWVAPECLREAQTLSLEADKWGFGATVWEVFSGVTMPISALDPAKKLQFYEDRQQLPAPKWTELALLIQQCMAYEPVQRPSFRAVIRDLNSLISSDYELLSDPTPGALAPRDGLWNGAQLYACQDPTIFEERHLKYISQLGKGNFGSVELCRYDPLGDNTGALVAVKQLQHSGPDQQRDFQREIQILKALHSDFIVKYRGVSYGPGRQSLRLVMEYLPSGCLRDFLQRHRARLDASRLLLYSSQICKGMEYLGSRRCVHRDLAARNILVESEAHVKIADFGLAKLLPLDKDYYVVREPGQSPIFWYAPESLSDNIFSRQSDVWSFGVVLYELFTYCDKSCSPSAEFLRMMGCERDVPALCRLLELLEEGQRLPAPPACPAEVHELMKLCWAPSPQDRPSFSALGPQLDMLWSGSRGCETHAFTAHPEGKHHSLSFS
Chain of IRAK4 (Q9NWZ3 whole entry, species assumed): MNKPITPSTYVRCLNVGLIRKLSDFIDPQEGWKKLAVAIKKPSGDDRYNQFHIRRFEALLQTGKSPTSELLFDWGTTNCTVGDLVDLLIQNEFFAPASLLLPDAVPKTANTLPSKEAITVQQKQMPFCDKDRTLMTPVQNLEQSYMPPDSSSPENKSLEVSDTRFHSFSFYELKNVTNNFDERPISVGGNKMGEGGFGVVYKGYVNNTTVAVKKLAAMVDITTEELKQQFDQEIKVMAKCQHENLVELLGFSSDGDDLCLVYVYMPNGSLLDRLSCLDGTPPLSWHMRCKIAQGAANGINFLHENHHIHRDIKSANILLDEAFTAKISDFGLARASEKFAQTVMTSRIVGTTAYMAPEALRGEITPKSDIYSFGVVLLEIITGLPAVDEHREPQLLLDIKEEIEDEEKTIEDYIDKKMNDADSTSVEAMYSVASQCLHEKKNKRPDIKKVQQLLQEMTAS

As to `CC(=O)N[C@H]1CC[C@H](NC(=O)c2cnn3cc(-c4ccc(C#N)cc4)cc3c2NC(C)C)CC1` [Example 81, N-((1r,4r)-4-acetamidocyclohexyl)-6-(4-cyanophenyl)-4-(isopropylamino)pyrrolo[1,2-b]pyridazine-3-carboxamide], the IC50 on IRAK4 is 0.012 µM; at JAK3 kinase, greater than 50 µM; in test [1], greater than 20 µM. The “Ratio of JAK3 IC50 to IRAK4 IC50” value at JAK3 kinase is given as greater than 4167.
Taken in the same sequence, the figures for `CC(C)Nc1c(C(=O)N[C@H]2CC[C@H](O)CC2)cnn2cc(-c3ccncc3)cc12` [Example 60, N-((1r,4r)-4-hydroxycyclohexyl)-4-(isopropylamino)-6-(pyridin-4-yl)pyrrolo[1,2-b]pyridazine-3-carboxamide] were 0.0095 µM, greater than 50 µM, 3.95 µM and greater than 5263.
In the case of `CC(C)Nc1c(C(=O)NC2CCN(S(C)(=O)=O)CC2)cnn2cc(-c3ccncc3F)nc12` [Example 111, 2-(3-fluoropyridin-4-yl)-8-(isopropylamino)-N-(1-(methylsulfonyl)piperidin-4-yl)imidazo[1,2-b]pyridazine-7-carboxamide], the figures for the 50% inhibitory concentration (IC50) (at IRAK4; at JAK3 kinase; in test [1]) were 0.013 µM, greater than 50 µM and 3.73 µM, respectively. The “Ratio of JAK3 IC50 to IRAK4 IC50” value at JAK3 kinase was greater than 3846.
As for `Cc1cc(F)ncc1-c1cc2c(NC(C)C)c(C(=O)N[C@H]3CC[C@H](C(N)=O)CC3)cnn2c1` [Example 88, N-((1r,4r)-4-carbamoylcyclohexyl)-6-(6-fluoro-4-methylpyridin-3-yl)-4-(isopropylamino)pyrrolo[1,2-b]pyridazine-3-carboxamide], the IC50 on IRAK4 is 0.0076 µM; at JAK3 kinase it was greater than 50 µM; in test [1], greater than 10 µM. Moreover, the “Ratio of JAK3 IC50 to IRAK4 IC50” value at JAK3 kinase is recorded as greater than 6579.
Consider `COC(=O)N[C@H]1CC[C@H](NC(=O)c2cnn3cc(-c4cccnc4)cc3c2NC(C)C)CC1` [Example 49, methyl ((1r,4r)-4-(4-(isopropylamino)-6-(pyridin-3-yl)pyrrolo[1,2-b]pyridazine-3-carboxamido)cyclohexyl)carbamate], for which the half-inhibitory concentration (IC50) at IRAK4 is 0.0113 µM; at JAK3 kinase, greater than 50 µM; in test [1], greater than 10 µM. The “Ratio of JAK3 IC50 to IRAK4 IC50” value on JAK3 kinase was greater than 4425.
The like results for `CC(C)Nc1c(C(=O)NC[C@@H](F)C(C)(C)O)cnn2cc(-c3ccc(C#N)cc3)cc12` [Example 1, (R)-6-(4-cyanophenyl)-N-(2-fluoro-3-hydroxy-3-methylbutyl)-4-(isopropylamino)pyrrolo[1,2-b]pyridazine-3-carboxamide] were, in that order, 0.012 µM, 20 µM, greater than 10 µM and 1667.
Take `CC(C)Nc1c(C(=O)NCCC(C)(C)O)cnn2cc(-c3ccncc3F)nc12` [Example 109, 2-(3-fluoropyridin-4-yl)-N-(3-hydroxy-3-methylbutyl)-8-(isopropylamino)imidazo[1,2-b]pyridazine-7-carboxamide]: the IC50 on IRAK4 was 0.012 µM; on JAK3 kinase, greater than 50 µM; in test [1], greater than 20 µM. Moreover, the “Ratio of JAK3 IC50 to IRAK4 IC50” value at JAK3 kinase is recorded as greater than 4167.
In the case of `CC(C)Nc1c(C(=O)NC[C@@H](F)C(C)(C)O)cnn2cc(-c3cccnc3)cc12` [Example 3, (R)—N-(2-fluoro-3-hydroxy-3-methylbutyl)-4-(isopropylamino)-6-(pyridin-3-yl)pyrrolo[1,2-b]pyridazine-3-carboxamide], the figures for the 50% inhibitory concentration (IC50) (on IRAK4; on JAK3 kinase; in test [1]) were 0.016 µM, 31 µM and 9.5 µM, respectively. On JAK3 kinase, the “Ratio of JAK3 IC50 to IRAK4 IC50” value was found to be 1938.
`CC(C)Nc1c(C(=O)N[C@H]2CC[C@H](C(N)=O)CC2)cnn2cc(-c3ccncc3F)cc12` [Example 89, N-((1r,4r)-4-carbamoylcyclohexyl)-6-(3-fluoropyridin-4-yl)-4-(isopropylamino) pyrrolo[1,2-b]pyridazine-3-carboxamide]: the IC50 is 0.0038 µM on IRAK4, greater than 50 µM at JAK3 kinase and 1.36 µM in test [1]. Also, the “Ratio of JAK3 IC50 to IRAK4 IC50” value on JAK3 kinase is greater than 13158.
In the case of `CC(C)Nc1c(C(=O)N[C@H]2CC[C@H](NC(=O)CO)CC2)cnn2cc(-c3ccncc3F)cc12` [Example 68, 6-(3-fluoropyridin-4-yl)-N-((1r,4r)-4-(2-hydroxyacetamido)cyclohexyl)-4-(isopropylamino)pyrrolo[1,2-b]pyridazine-3-carboxamide], the IC50 was 0.0065 µM on IRAK4, greater than 50 µM at JAK3 kinase and 4.1 µM in test [1]. Further, the “Ratio of JAK3 IC50 to IRAK4 IC50” value on JAK3 kinase is greater than 7692.
With `CC(C)Nc1c(C(=O)N[C@H]2CC[C@H](c3nc[nH]n3)CC2)cnn2cc(-c3ccncc3F)cc12` [Example 93, N-((1r,4r)-4-(1H-1,2,4-triazol-3-yl)cyclohexyl)-6-(3-fluoropyridin-4-yl)-4-(isopropylamino)pyrrolo[1,2-b]pyridazine-3-carboxamide], the concentration for half-maximal inhibition (IC50) is 0.0023 µM on IRAK4, greater than 50 µM at JAK3 kinase and 1.04 µM in test [1]. Besides, the “Ratio of JAK3 IC50 to IRAK4 IC50” value on JAK3 kinase is listed as greater than 21739.
Taken in the same sequence, the figures for `CC(C)Nc1c(C(=O)NC[C@@H](F)C(C)(C)O)cnn2cc(-c3cncs3)cc12` [Example 55, (R)—N-(2-fluoro-3-hydroxy-3-methylbutyl)-4-(isopropylamino)-6-(thiazol-5-yl)pyrrolo[1,2-b]pyridazine-3-carboxamide] were 0.0039 µM, greater than 50 µM, greater than 10 µM and greater than 12821.
On to `CC(C)Nc1c(C(=O)NC2CCN(S(C)(=O)=O)CC2)cnn2cc(-c3ccc(F)nc3)cc12` [Example 85, 6-(6-fluoropyridin-3-yl)-4-(isopropylamino)-N-(1-(methylsulfonyl)piperidin-4-yl)pyrrolo[1,2-b]pyridazine-3-carboxamide], for which the half-inhibitory concentration (IC50) at IRAK4 is 0.0025 µM; on JAK3 kinase, roughly 31 µM; in test [1], 0.87 µM. Besides, the “Ratio of JAK3 IC50 to IRAK4 IC50” value at JAK3 kinase is given as roughly 12400.
With `Cc1cc(F)ncc1-c1cc2c(NC(C)C)c(C(=O)N[C@H]3CC[C@H](c4nc[nH]n4)CC3)cnn2c1` [Example 91, N-((1r,4r)-4-(1H-1,2,4-triazol-3-yl)cyclohexyl)-6-(6-fluoro-4-methylpyridin-3-yl)-4-(isopropylamino)pyrrolo[1,2-b]pyridazine-3-carboxamide], the IC50 on IRAK4 is 0.0052 µM; at JAK3 kinase it was greater than 50 µM; in test [1], 1.46 µM. Further, at JAK3 kinase, the “Ratio of JAK3 IC50 to IRAK4 IC50” value is on record as greater than 9615.
Consider `CC(=O)N[C@H]1CC[C@H](NC(=O)c2cnn3cc(-c4ccncc4F)cc3c2NC(C)C)CC1` [Example 65, N-((1r,4r)-4-acetamidocyclohexyl)-6-(3-fluoropyridin-4-yl)-4-(isopropylamino)pyrrolo[1,2-b] pyridazine-3-carboxamide], for which the values for the IC50 (at IRAK4; at JAK3 kinase; in test [1]) were 0.0016 µM, greater than 50 µM and 0.36 µM, respectively. On JAK3 kinase, the “Ratio of JAK3 IC50 to IRAK4 IC50” value is recorded as greater than 31250.
